# In patent US6110962A, “11-aryl-benzo[B]naphtho[2,3-D]furans and 11-aryl-benzo[B]naphtho[2,3-D]thiophenes useful in the treatment of insulin resistance and hyperglycemia” (American Home Products Corporation, priority 1999, dated 2000):
# Biological target: T1, Human recombinant PTP1B (Homo sapiens, UniProt P18031)
# T1 construct: made in house
# T1 sequence (P18031 1-435): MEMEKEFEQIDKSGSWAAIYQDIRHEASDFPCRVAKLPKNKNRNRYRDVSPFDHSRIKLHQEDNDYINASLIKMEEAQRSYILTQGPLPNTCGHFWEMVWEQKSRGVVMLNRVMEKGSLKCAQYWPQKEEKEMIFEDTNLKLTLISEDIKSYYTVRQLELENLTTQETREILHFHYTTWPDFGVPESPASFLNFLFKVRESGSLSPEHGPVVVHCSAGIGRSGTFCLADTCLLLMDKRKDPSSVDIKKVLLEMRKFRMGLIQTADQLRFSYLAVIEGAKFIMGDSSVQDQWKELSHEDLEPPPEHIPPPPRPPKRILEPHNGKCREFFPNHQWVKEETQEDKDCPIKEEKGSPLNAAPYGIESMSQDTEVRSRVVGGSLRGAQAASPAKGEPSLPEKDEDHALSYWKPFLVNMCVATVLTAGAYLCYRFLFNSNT
# Type: biochemical
# Details: read-out: IC50
row,IC50 [nM],SMILES
1,2000,"Oc1c(-c2ccccc2)cc(-c2c3ccccc3cc3sc4ccccc4c23)cc1-c1ccccc1 [Example 190, 5'-Benzo[b]naphtho[2,3-d]thiophen-11-yl-[1,1':3', 1.increment.]terphenyl-2'-ol]"

# Test system: rat hepatic microsomal PTPases
# Details: PTPase activity, compound at 50 μM
row,SMILES,% Change from Control [%]
1,COc1c(Br)cc(-c2c3ccccc3c(Br)c3sc4ccccc4c23)cc1Br [Example 22],-16.83
2,"COc1c(C)cc(-c2c3ccccc3c(C)c3sc4ccccc4c23)cc1C [Example 24, 11-(4-Methoxy-3,5-dimethyl-phenyl)-6-methyl-benzo[b]naphtho[2,3-d]thiophene]",3.16
3,"Cc1cc(-c2c3ccccc3c(C)c3sc4ccccc4c23)cc(C)c1O [Example 25, 2,6-Dimethyl-4-(6-methyl-benzo[b]naphtho[2,3-d]thiophen-11-yl)-phenol]",-38.31
4,"Oc1c(Br)cc(-c2c3ccccc3c(C(F)(F)F)c3sc4ccccc4c23)cc1Br [Example 61, 2,6-Dibromo-4-(6-trifluoromethyl-benzo[b]naphtho[2,3-d]thiophen-11-yl)-phenol]",-54.82
5,"Cc1cc(-c2c3ccccc3c(C)c3sc4ccccc4c23)cc(C)c1OCC(=O)O [Example 86, {2,6-Dimethyl-4-[6-methyl-(benzo[b]naphtho[2,3-d]thiophen-11-yl)]-phenoxy}-acetic acid]",-69.35
6,N#Cc1c2ccccc2c(-c2cc(Br)c(OCC(=O)O)c(Br)c2)c2c1sc1ccccc12 [Example 88],-67.03
7,O=C(O)COc1cc(-c2c3ccccc3c(Br)c3sc4ccccc4c23)cc(Br)c1OCC(=O)O [Example 94],-95.80
8,O=C(O)COc1cc(Br)c(-c2c3ccccc3c(Br)c3sc4ccccc4c23)cc1OCC(=O)O [Example 95],-75.45
9,"O=C(O)[C@@H](CCN1C(=O)c2ccccc2C1=O)Oc1c(Br)cc(-c2c3ccccc3c(Br)c3sc4ccccc4c23)cc1Br [Example 147, (R)-2-[2,6-Dibromo-4-(6-bromo-benzo[b]naphtho[2,3-d]thiophen-11-yl)-phenoxy]-4-(1,3-dioxo-1,3-dihydro-isoindol-2-yl)-butyric acid]",-66.60
10,"CCOP(=O)(OCC)C(CCc1ccccc1)Oc1c(Br)cc(-c2c3ccccc3c(Br)c3sc4ccccc4c23)cc1Br (stereo not shown) [Example 161, {1-2,6-Dibromo-4-(6-bromo-benzo[b]naphtho[2,3-d]thiophen-11-yl)-phenoxyl-3-phenyl-propyl}-phosphonic acid, diethyl ester]",-8.03
11,O=C(NO)[C@@H](Cc1ccccc1)Oc1c(Br)cc(-c2c3ccccc3c(Br)c3sc4ccccc4c23)cc1Br [Example 167],-16.99
12,"BrC[C@@H](Cc1ccccc1)Oc1c(Br)cc(-c2c3ccccc3c(Br)c3sc4ccccc4c23)cc1Br [Example 174, (R)-6-Bromo-11-[3,5-dibromo-4-(1-bromomethyl-2-phenyl-ethoxy)-phenyl]-benzo[b]naphtho[2,3-d]thiophene]",0.39
13,"O=C1NC(=O)C(Oc2c(Br)cc(-c3c4ccccc4c(Br)c4sc5ccccc5c34)cc2Br)S1 (stereo not shown) [Example 175, 5-[2,6-Dibromo-4-(6-bromo-benzo[b]naphtho[2,3-d]thiophen-11-yl)-phenoxy]-thiazolidinedione-2.4-dione]",-69.20
14,O=C(O)COc1c2ccccc2c(-c2cc(Br)c(O[C@H](Cc3ccccc3)C(=O)O)c(Br)c2)c2c1sc1ccccc12 [Example 185],-98.45
15,O=C(O)COc1c(Br)cc(-c2c3c(c(Br)c4ccccc24)S(=O)(=O)c2ccccc2-3)cc1Br [Example 186],-74.87
16,O=C(O)COc1c(Br)cc(-c2c3ccccc3c(Br)c3c2c2ccccc2[s+]3[O-])cc1Br (stereo not shown) [Example 187],-57.64
17,"O=C(O)COc1c(F)ccc(-c2c3ccccc3c(Br)c3sc4ccccc4c23)c1F [Example 201, [3-(6-Bromo-benzo[b]naphtho[2,3-d]thiophen-11-yl)-2.6-difluoro-phenoxy]-acetic acid]",-75.75
18,"Oc1c(Br)cc(-c2c3ccccc3c(Br)c3oc4ccccc4c23)c(O)c1Br [Example 211, 2,6-Dibromo-4-(6-bromo-benzo[b]naphtho[2,3-d]furan-11-yl)-3-hydroxy-phenol]",-36.82
19,O=C(O)COc1c(Br)cc(-c2c3ccccc3c(Br)c3oc4ccccc4c23)c(O)c1Br [Example 217],-80.42

# Results, then the compound that gave them:
row,% Change from Control [%],SMILES
1,1.03,"COc1ccc(C(=O)c2c(Cc3ccccc3)sc3ccccc23)cc1 [Example 7, (2-Benzyl-benzo[b]thiophen-3-yl)-(4-methoxy-phenyl)-methanone]"
2,-34.19,"Oc1ccc(-c2c3ccccc3cc3sc4ccccc4c23)cc1 [Example 14, 4-Benzo[b]naphtho[2,3-d]thiophen-11-yl-phenol]"
3,-43.68,"Oc1ccc(-c2c3ccccc3cc3sc4cc(O)ccc4c23)cc1 [Example 15, 11-(4-Hydroxy-phenyl)-benzo[b]naphtho[2,3-d]thiophen-3-ol]"
4,-26.86,"Oc1ccc(-c2c3ccc(O)cc3cc3sc4ccccc4c23)cc1 [Example 20, 11-(4-Hydroxy-phenyl)-benzo[b]naphtho[2,3-d]thiophen-8-ol]"
5,-8.92,"COc1ccc(-c2c3ccccc3cc3sc4ccccc4c23)cc1 [Example 23, 11-(4-Methoxy-phenyl)-benzo[b]naphtho[2,3-d]thiophene]"
6,-8.68,"Oc1c(I)cc(-c2c3ccccc3cc3sc4ccccc4c23)cc1I [Example 26, 4-(Benzo[b]naphtho[2,3-d]thiophen-11-yl)-2,6-diiodo-phenol]"
7,-35.78,"Oc1ccc(-c2c3ccccc3cc3sc4ccccc4c23)cc1I [Example 27, 4-(Benzo[b]naphtho[2,3-d]thiophen-11-yl)-2-iodo-phenol]"
8,1.00,"COc1c(C#N)cc(-c2c3ccccc3cc3sc4ccccc4c23)cc1C#N [Example 30, 5-Benzo[b]naphtho[2,3-d]thiophen-11-yl-2-methoxy-isophthalonitrile]"
9,-58.12,"N#Cc1cc(-c2c3ccccc3cc3sc4ccccc4c23)cc(C#N)c1O [Example 32, 5-Benzo[b]naphtho[2,3-d]thiophen-11-yl-2-hydroxy-isophthalonitrile]"
10,-3.40,"CC(=O)Oc1ccc(-c2c3ccccc3cc3sc4ccccc4c23)cc1 [Example 34, 4-(Benzo[b]naphtho[2,3-d]thiophen-11-yl-phenol)acetate ester]"
11,-3.50,"CS(=O)(=O)Oc1ccc(-c2c3ccccc3c(I)c3sc4ccccc4c23)cc1 [Example 47, Methanesulfonic acid 4-(6-Iodo-benzo[b]naphtho[2,3-d]thiophen-11-yl)-phenylester]"
12,-21.61,"O=C(O)COc1ccc(-c2c3ccccc3cc3sc4cc(OCC(=O)O)ccc4c23)cc1 [Example 74, [11-(4-Carboxymethoxy-phenyl)-benzo[b]naphtho[2,3-d]thiophen-3-yloxy]-acetic acid]"
13,-18.89,"O=C(O)COc1ccc(-c2c3ccc(OCC(=O)O)cc3cc3sc4ccccc4c23)cc1 [Example 76, [11-(4-Carboxymethoxy-phenyl)-benzo[b]naphtho[2.3-d]thiophen-8-yloxy]-acetic acid]"
14,-57.89,"O=C(O)COc1c(I)cc(-c2c3ccccc3cc3sc4ccccc4c23)cc1I [Example 83, (4-Benzo[b]naphtho[2,3-d]thiophen-11-yl-2,6-diiodo-phenoxy)-acetic acid]"
15,-73.91,"O=C(O)COc1ccc(-c2c3ccccc3cc3sc4ccccc4c23)cc1 [Example 84, [4-Benzo[b]naphtho[2,3-d]thiophen-11-yl-phenoxy]-acetic acid]"
16,-71.67,"O=C(O)COc1ccc(-c2c3ccccc3cc3sc4ccccc4c23)cc1I [Example 85, (4-Benzo[b]naphtho[2,3-d]thiophen-11-yl-2-iodo-phenoxy)-acetic acid]"
17,-79.04,"O=C(O)COc1cccc(-c2c3ccccc3c(Br)c3sc4ccccc4c23)c1 [Example 90, [3-(6-Bromo-benzo[b]naphtho[2,3-d]thiophen-11-yl)-phenoxyl]-acetic acid]"
18,-58.35,O=C(O)COc1ccc(-c2c3ccccc3c(Br)c3sc4ccccc4c23)cc1OCC(=O)O [Example 93]
19,-75.29,O=C(O)COc1ccc2c(c1)sc1cc3ccccc3c(-c3ccc(O[C@H](Cc4ccccc4)C(=O)O)cc3)c12 [Example 119]
20,-59.82,O=C(O)COc1ccc2c(c1)sc1cc3ccccc3c(-c3ccc(O[C@H](CCN4C(=O)c5ccccc5C4=O)C(=O)O)cc3)c12 [Example 149]
21,-38.40,"O=P(O)(O)COc1ccc(-c2c3ccccc3cc3sc4ccccc4c23)cc1 [Example 163, [4-(Benzo[b]naphtho[2,3-d]thiophen-11-yl)-phenoxymethyl]-phosphonic acid]"
22,-70.32,O=P(O)(O)C(CCc1ccccc1)Oc1c(Br)cc(-c2c3ccccc3c(Br)c3sc4ccccc4c23)cc1Br (stereo not shown) [Example 164]
23,-54.40,"O=C(O)COc1ccc(-c2c3ccccc3cc3oc4ccccc4c23)cc1 [Example 213, 4-(Benzo[b]naphtho[2,3-d]furan-11-yl-phenoxy)-acetic acid]"
